# Laboratory results taken from paper PMC9696794, “Synthesis and Antimicrobial Activity of Short Analogues of the Marine Antimicrobial Peptide Turgencin A: Effects of SAR Optimizations, Cys-Cys Cyclization and Lipopeptide Modifications” (International Journal of Molecular Sciences, 2022).
# Where a SMILES comes first, the peptide text is derived from it. Bridges are numbered along the chain shown (N, C = ends). The star is where a group is joined. Lauroyl = CCCCCCCCCCCC(=O)*; Octanoyl = CCCCCCCC(=O)*
# Columns and labels:
# [1] = system: Gram-negative bacterial strains (E. coli and P. aeruginosa); test: Antibacterial MIC assay, Gram-negative strains together (range or geometric mean); type: cell-based; conditions: Table S3; MIC >256 set to 256
# Procedure, shortened: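 Cultures grown in Mueller–Hinton broth were adjusted by OD600 to 2.5–3 × 10^4 CFU/mL and mixed with two-fold peptide dilutions from 256 to 1 µg/mL. Plates were incubated at 35 °C with OD595 monitored every hour for 24 h.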
# [2] = system: E. coli K12; test: Bacterial biosensor viability assay (lux operon luminescence); type: cell-based, Escherichia coli; conditions: E. coli K12, within 3 min
# From the text: (§1) Changes in light emission of sensor bacteria constitutively expressing the bacterial lux operon or a eukaryotic luciferase can be used as a proxy for viability and membrane integrity, respectively. Light production of the viability biosensors represents metabolic activity of the bacteria. For the membrane integrity assay on the other hand, light production depends on the influx of the externally added D-luciferin, which at neural pH will not readily pass the intact plasma membrane. An initial increase in light production therefore corresponds with damage to the plasma membrane and a concomitant influx of D-luciferin, while a subsequent drop in light emission indicates diminishing ATP reserves of the dying sensor bacteria.
# (§2) Bacterial viability, based on light production by constitutively expressed bacterial luciferase, was measured in real time according to the method described by Hansen et al.. The assay was performed using B. subtilis 168 with chromosomally integrated luxABCDE operon and E. coli K12 carrying the plasmid pCGLS-11 containing the luxCDABE operon. […] No D-luciferin was added to the cell suspension. Each assay was performed at least three times independently, and the figures show a representative dataset.
# [3] = system: B. subtilis 168; test: as above; type: cell-based, Bacillus subtilis; conditions: B. subtilis 168, increasing concentrations, within 3 min
# From the text: as §1, §2
# [4] = system: human red blood cells (RBC); test: Haemolytic activity assay; type: cell-based; conditions: for Selectivity index (SI) G- / Selectivity index (SI) G+ / Selectivity index (SI) Fungi: Table S3, highest tested concentration used where EC50 above it; for Selectivity index (SI) G-: EC50/GM of Gram-negative strains; for Selectivity index (SI) G+: EC50/GM of Gram-positive strains; for Selectivity index (SI) Fungi: EC50/GM of fungi; for SI (selectivity index = EC50/GM): haemolytic EC50 over GM of MIC against all bacterial strains, Table 1; for RBC Tox. (EC50), haemolytic activity: human RBC, 1 h, 37 °C, concentration giving 50% haemolysis
# Procedure, shortened: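 Washed human erythrocytes (1% hematocrit final) incubated 1 h at 37 °C with agitation with lipopeptides at 500–3.9 μM in PBS (≤1% DMSO), duplicates. Haemoglobin release read at 545 nm relative to 0.1% Triton X-100; EC50 is 50% haemolysis, averaged from three experiments.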
# [5] = system: E. coli (ATCC 25922); test: Bacterial killing experiment (CFU count after MIC assay); type: cell-based, Escherichia coli
# Method: A killing experiment was performed on selected lipopeptides by using actively growing cultures of S. aureus (ATCC 9144) and E. coli (ATCC 25922). The procedure was performed as previously described. […] The number of colony-forming units (CFU) was determined after 24 h of incubation at 37 °C. The tests were performed in triplicate.
# [6] = at half-MIC, compared to growth control
smiles,measurement,setting,value
"CCCCCCCCCCCC(=O)N[C@H]1CSSC[C@@H](C(=O)N[C@@H](CCCCN)C(=O)N[C@@H](CC(C)C)C(N)=O)NC(=O)[C@H](CCCCN)NC(=O)[C@H](Cc2c[nH]c3ccccc23)NC(=O)CNC(=O)CNC(=O)[C@@H]2CCCN2C(=O)[C@H](CCCCN)NC(=O)[C@H](CCCCN)NC(=O)CNC1=O [Peptide C12-cTurg-1, C12 -(CGKKPGGWKC)KL-NH2] (Lauroyl-CGKKPGGWKCKL-NH2; disulfide 1-10)",GM of MIC G-,[1],8 µg/mL
same,effect on viability (light emission),[2],"gradual, dose-dependent reduction in viability"
same,effect on viability (light emission),[3],dose-dependent effect on viability
same,Selectivity index (SI) G-,[4],27
same,Selectivity index (SI) G+,[4],77
same,Selectivity index (SI) Fungi,[4],11
same,SI (selectivity index = EC50/GM),[4],55
same,"RBC Tox. (EC50), haemolytic activity",[4],219 µg/mL
same,colony-forming units (CFU) after treatment,"[5]; at MIC (or above), 24 h",No CFU were observed
same,colony-forming units (CFU) after treatment,[5]; [6],slightly less colony-forming units (CFU) were formed
"CCCCCCCC(=O)N[C@H]1CSSC[C@@H](C(=O)N[C@@H](CCCCN)C(=O)N[C@@H](CC(C)C)C(N)=O)NC(=O)[C@H](CCCCN)NC(=O)[C@H](Cc2c[nH]c3ccccc23)NC(=O)CNC(=O)[C@H](Cc2c[nH]c3ccccc23)NC(=O)[C@H](Cc2c[nH]c3ccccc23)NC(=O)[C@H](CCCCN)NC(=O)[C@H](CCCCN)NC(=O)CNC1=O [Peptide C8-cTurg-2, C8- (CGKKWWGWKC)KL-NH2] (Octanoyl-CGKKWWGWKCKL-NH2; disulfide 1-10)",GM of MIC G-,[1],6 µg/mL
same,effect on viability (light emission),[2],"gradual, dose-dependent reduction in viability"
same,effect on viability (light emission),[3],dose-dependent effect on viability
same,Selectivity index (SI) G-,[4],78
same,Selectivity index (SI) G+,[4],155
same,Selectivity index (SI) Fungi,[4],35
same,SI (selectivity index = EC50/GM),[4],123
same,"RBC Tox. (EC50), haemolytic activity",[4],439 µg/mL
same,colony-forming units (CFU) after treatment,"[5]; at MIC (or above), 24 h",No CFU were observed
same,colony-forming units (CFU) after treatment,[5]; [6],slightly less colony-forming units (CFU) were formed
